Measured values taken from ChEMBL document CHEMBL4359854, “Repurposing mosloflavone/5,6,7-trimethoxyflavone-resveratrol hybrids: Discovery of novel p38-α MAPK inhibitors as potent interceptors of macrophage-dependent production of proinflammatory mediators” (Eur J Med Chem, 2019).
Blank lines part the entries; values can stand above or below the compound they belong to. Calls of active or inactive are those of the source. No cut-off for these calls is given here.

Legend:
[1] = Cytotoxicity against LPS-induced mouse RAW264.7 cells assessed as cell viability at 1 uM incubated for 24 hrs by MTT assay relative to control; type: cell-based; settings: LPS-induced RAW264.7 cells, read-out: Activity
RAW264.7 [2] = test: Anti-inflammatory activity in mouse RAW264.7 cells assessed as inhibition of LPS-induced NO production at 1 uM preincubated for 1 hr followed by LPS addition and measured after 24 hrs by Griess reagent-based assay relative to control; type: functional
RAW264.7 [3] = test: Anti-inflammatory activity in mouse RAW264.7 cells assessed as inhibition of LPS-induced PGE2 production at 1 uM preincubated for 1 hr followed by LPS addition and measured after 24 hrs by EIA relative to control; type: functional
RAW264.7 [4] = test: Anti-inflammatory activity in mouse RAW264.7 cells assessed as inhibition of LPS-induced IL-6 production at 1 uM preincubated for 1 hr followed by LPS addition and measured after 24 hrs by EIA relative to control; type: functional
RAW264.7 [5] = test: Anti-inflammatory activity in mouse RAW264.7 cells assessed as inhibition of LPS-induced TNFalpha production at 1 uM preincubated for 1 hr followed by LPS addition and measured after 24 hrs by EIA relative to control; type: functional
RAW264.7 [6] = test: Anti-inflammatory activity in mouse RAW264.7 cells assessed as inhibition of LPS-induced IL-1beta production at 1 uM preincubated for 1 hr followed by LPS addition and measured after 24 hrs by EIA relative to control; type: functional
RAW264.7 [7] = test: Anti-inflammatory activity in mouse RAW264.7 cells assessed as inhibition of LPS-induced PGE2 production preincubated for 1 hr followed by LPS addition and measured after 24 hrs by EIA; type: functional, cell-based
RAW264.7 [8] = test: Anti-inflammatory activity in mouse RAW264.7 cells assessed as inhibition of LPS-induced PGE2 production at 0.2 uM preincubated for 1 hr followed by LPS addition and measured after 24 hrs by EIA; type: functional, cell-based

Structure (SMILES): COc1cc2oc(-c3cccc(C(=O)Nc4ccccc4)c3)cc(=O)c2c(OC)c1OC
viability at 24 h, 1 µM [1]: 90.6%
inhibition at 1 µM (RAW264.7 [2]): 13%
inhibition at 1 µM (RAW264.7 [3]): -10.9%
inhibition at 1 µM (RAW264.7 [4]): 12.5%
inhibition at 1 µM (RAW264.7 [5]): 24.2%
inhibition at 1 µM (RAW264.7 [6]): 86.8%

Structure (SMILES): COc1cc2oc(-c3cccc(NC(=O)c4ccccc4)c3)cc(=O)c2c(OC)c1OC
viability at 24 h, 1 µM [1]: 95.8%
inhibition at 1 µM (RAW264.7 [2]): 3.31%
inhibition at 1 µM (RAW264.7 [3]): -11.3%
inhibition at 1 µM (RAW264.7 [4]): -17%
inhibition at 1 µM (RAW264.7 [5]): 20.9%
inhibition at 1 µM (RAW264.7 [6]): 16.5%

Structure (SMILES): COc1ccc(C(=O)Nc2cccc(-c3cc(=O)c4c(OC)c(OC)c(OC)cc4o3)c2)cc1
viability at 24 h, 1 µM [1]: 102%
inhibition at 1 µM (RAW264.7 [2]): 11.1%
inhibition at 1 µM (RAW264.7 [3]): 6.21%
inhibition at 1 µM (RAW264.7 [4]): -12.5%
inhibition at 1 µM (RAW264.7 [5]): 20.4%
inhibition at 1 µM (RAW264.7 [6]): 12.2%

Structure (SMILES): COc1ccc(C(=O)Nc2cccc(-c3cc(=O)c4c(O)c(OC)c(OC)cc4o3)c2)cc1
viability at 24 h, 1 µM [1]: 105%
inhibition at 1 µM (RAW264.7 [2]): 6.52%
inhibition at 1 µM (RAW264.7 [3]): 52.7%
inhibition at 1 µM (RAW264.7 [4]): -7.54%
inhibition at 1 µM (RAW264.7 [5]): 48.2%
inhibition at 1 µM (RAW264.7 [6]): 34.6%

Structure (SMILES): COc1cccc(C(=O)Nc2cccc(-c3cc(=O)c4c(OC)c(OC)c(OC)cc4o3)c2)c1
viability at 24 h, 1 µM [1]: 117%
inhibition at 1 µM (RAW264.7 [2]): 19.9%
inhibition at 1 µM (RAW264.7 [3]): 2.62%
inhibition at 1 µM (RAW264.7 [4]): -52.5%
inhibition at 1 µM (RAW264.7 [5]): -88%
inhibition at 1 µM (RAW264.7 [6]): 75.6%

Structure (SMILES): COc1ccccc1C(=O)Nc1cccc(-c2cc(=O)c3c(OC)c(OC)c(OC)cc3o2)c1
viability at 24 h, 1 µM [1]: 99.8%
inhibition at 1 µM (RAW264.7 [2]): 1.11%
inhibition at 1 µM (RAW264.7 [3]): 33.9%
inhibition at 1 µM (RAW264.7 [4]): -15.8%
inhibition at 1 µM (RAW264.7 [5]): -83.9%
inhibition at 1 µM (RAW264.7 [6]): 25.2%

Structure (SMILES): COc1cc2oc(-c3cccc(C(=O)Nc4ccc5c(c4)OCO5)c3)cc(=O)c2c(OC)c1OC
viability at 24 h, 1 µM [1]: 92%
inhibition at 1 µM (RAW264.7 [2]): 17%
inhibition at 1 µM (RAW264.7 [3]): 16.1%
inhibition at 1 µM (RAW264.7 [4]): 25.7%
inhibition at 1 µM (RAW264.7 [5]): 9.94%
inhibition at 1 µM (RAW264.7 [6]): -54.4%

Structure (SMILES): COc1cc2oc(-c3cccc(C(=O)Nc4ccccc4)c3)cc(=O)c2c(O)c1OC
viability at 24 h, 1 µM [1]: 103%
inhibition at 1 µM (RAW264.7 [2]): 5.15%
inhibition at 1 µM (RAW264.7 [3]): 20%
inhibition at 1 µM (RAW264.7 [4]): -5.27%
inhibition at 1 µM (RAW264.7 [5]): 45.6%
inhibition at 1 µM (RAW264.7 [6]): 23.3%

Structure (SMILES): COc1cccc(NC(=O)c2cccc(-c3cc(=O)c4c(OC)c(OC)c(OC)cc4o3)c2)c1
viability at 24 h, 1 µM [1]: 84.2%
inhibition at 1 µM (RAW264.7 [2]): 12.3%
inhibition at 1 µM (RAW264.7 [3]): -11.4%
inhibition at 1 µM (RAW264.7 [4]): 7.66%
inhibition at 1 µM (RAW264.7 [5]): 34.1%
inhibition at 1 µM (RAW264.7 [6]): 82.6%

Structure (SMILES): COc1cc2oc(-c3ccc(NC(=O)c4ccccc4)cc3)cc(=O)c2c(OC)c1OC
viability at 24 h, 1 µM [1]: 109%
inhibition at 1 µM (RAW264.7 [2]): 9.71%
inhibition at 1 µM (RAW264.7 [3]): 7%
inhibition at 1 µM (RAW264.7 [4]): -23.2%
inhibition at 1 µM (RAW264.7 [5]): -8.22%
inhibition at 1 µM (RAW264.7 [6]): -30.2%

Structure (SMILES): COc1ccc(NC(=O)c2cccc(-c3cc(=O)c4c(O)c(OC)c(OC)cc4o3)c2)cc1
viability at 24 h, 1 µM [1]: 92.8%
inhibition at 1 µM (RAW264.7 [2]): -10.3%
inhibition at 1 µM (RAW264.7 [3]): 3.44%
inhibition at 1 µM (RAW264.7 [4]): 10.2%
inhibition at 1 µM (RAW264.7 [5]): -0.1%
inhibition at 1 µM (RAW264.7 [6]): 13.1%

Structure (SMILES): COc1cc2oc(-c3cccc(C(=O)Nc4ccc5c(c4)OCO5)c3)cc(=O)c2c(O)c1OC
viability at 24 h, 1 µM [1]: 97.1%
inhibition at 1 µM (RAW264.7 [2]): -5.15%
inhibition at 1 µM (RAW264.7 [3]): -2.8%
inhibition at 1 µM (RAW264.7 [4]): 12.8%
inhibition at 1 µM (RAW264.7 [5]): -7.5%
inhibition at 1 µM (RAW264.7 [6]): 27.1%

Structure (SMILES): COc1cccc(C(=O)Nc2cccc(-c3cc(=O)c4c(O)c(OC)c(OC)cc4o3)c2)c1
viability at 24 h, 1 µM [1]: 109%
inhibition at 1 µM (RAW264.7 [2]): 6.46%
inhibition at 1 µM (RAW264.7 [3]): 35.4%
inhibition at 1 µM (RAW264.7 [4]): -6.92%
inhibition at 1 µM (RAW264.7 [5]): 33.8%
inhibition at 1 µM (RAW264.7 [6]): 35.8%

Structure (SMILES): COc1ccc(C(=O)Nc2ccc(-c3cc(=O)c4c(OC)c(OC)c(OC)cc4o3)cc2)cc1
viability at 24 h, 1 µM [1]: 92.4%
inhibition at 1 µM (RAW264.7 [2]): 3.26%
inhibition at 1 µM (RAW264.7 [3]): 36.8%
inhibition at 1 µM (RAW264.7 [4]): -40.9%
inhibition at 1 µM (RAW264.7 [5]): 27.4%
inhibition at 1 µM (RAW264.7 [6]): -2.33%

Structure (SMILES): COc1cc2oc(-c3ccc(NC(=O)c4ccc5c(c4)OCO5)cc3)cc(=O)c2c(OC)c1OC
viability at 24 h, 1 µM [1]: 63%

Structure (SMILES): COc1ccc(NC(=O)c2cccc(-c3cc(=O)c4c(OC)c(OC)c(OC)cc4o3)c2)cc1
viability at 24 h, 1 µM [1]: 90%
inhibition at 1 µM (RAW264.7 [2]): 6.87%
inhibition at 1 µM (RAW264.7 [3]): 2.29%
inhibition at 1 µM (RAW264.7 [4]): 19.2%
inhibition at 1 µM (RAW264.7 [5]): 25.3%
inhibition at 1 µM (RAW264.7 [6]): 128%

IC50 (RAW264.7 [7]): 1.99 µM
Structure (SMILES): COc1ccccc1NC(=O)c1cccc(-c2cc(=O)c3c(OC)c(OC)c(OC)cc3o2)c1
viability at 24 h, 1 µM [1]: 101%
inhibition at 1 µM (RAW264.7 [2]): 20.6%
inhibition at 1 µM (RAW264.7 [3]): 42.5%
inhibition (RAW264.7 [7]): Dose-dependent effect
inhibition (RAW264.7 [8]): Active
inhibition at 1 µM (RAW264.7 [4]): -32.2%
inhibition at 1 µM (RAW264.7 [5]): 22.9%
inhibition at 1 µM (RAW264.7 [6]): 71.2%

Structure (SMILES): COc1cccc(C(=O)Nc2ccc(-c3cc(=O)c4c(OC)c(OC)c(OC)cc4o3)cc2)c1
viability at 24 h, 1 µM [1]: 111%
inhibition at 1 µM (RAW264.7 [2]): 9.41%
inhibition at 1 µM (RAW264.7 [3]): 16.1%
inhibition at 1 µM (RAW264.7 [4]): -47.5%
inhibition at 1 µM (RAW264.7 [5]): -9.17%
inhibition at 1 µM (RAW264.7 [6]): 4.65%

Structure (SMILES): COc1cccc(NC(=O)c2cccc(-c3cc(=O)c4c(O)c(OC)c(OC)cc4o3)c2)c1
viability at 24 h, 1 µM [1]: 103%
inhibition at 1 µM (RAW264.7 [2]): 10.9%
inhibition at 1 µM (RAW264.7 [3]): 35.4%
inhibition at 1 µM (RAW264.7 [4]): 1.96%
inhibition at 1 µM (RAW264.7 [5]): 5.85%
inhibition at 1 µM (RAW264.7 [6]): 18.5%

Structure (SMILES): COc1cc2oc(-c3cccc(NC(=O)c4ccc5c(c4)OCO5)c3)cc(=O)c2c(O)c1OC
viability at 24 h, 1 µM [1]: 104%
inhibition at 1 µM (RAW264.7 [2]): 7.46%
inhibition at 1 µM (RAW264.7 [3]): 49.3%
inhibition at 1 µM (RAW264.7 [4]): -6.67%
inhibition at 1 µM (RAW264.7 [5]): -12.1%
inhibition at 1 µM (RAW264.7 [6]): 11.6%

IC50 (RAW264.7 [7]): 2.38 µM
Structure (SMILES): COc1ccccc1NC(=O)c1cccc(-c2cc(=O)c3c(O)c(OC)c(OC)cc3o2)c1
viability at 24 h, 1 µM [1]: 99.4%
inhibition at 1 µM (RAW264.7 [2]): 7.19%
inhibition at 1 µM (RAW264.7 [3]): 50.5%
inhibition (RAW264.7 [7]): Dose-dependent effect
inhibition (RAW264.7 [8]): Active
inhibition at 1 µM (RAW264.7 [4]): -21.4%
inhibition at 1 µM (RAW264.7 [5]): 36.1%
inhibition at 1 µM (RAW264.7 [6]): -2.41%

Structure (SMILES): COc1cc2oc(-c3cccc(NC(=O)c4ccc5c(c4)OCO5)c3)cc(=O)c2c(OC)c1OC
viability at 24 h, 1 µM [1]: 116%
inhibition at 1 µM (RAW264.7 [2]): 7.13%
inhibition at 1 µM (RAW264.7 [3]): 17.1%
inhibition at 1 µM (RAW264.7 [4]): -9.56%
inhibition at 1 µM (RAW264.7 [5]): -40.6%
inhibition at 1 µM (RAW264.7 [6]): 38.2%
